Legend:
[1] = system: THP-1 cells; assay: Penetratin uptake and endo-lysosomal escape, time-correlated flow cytometry; type: cell-based, human; conditions: 37°C
Source text: (§1) Penetratin ([…]-amide, molecular weight 2245.75 g/mol) was synthesized manually on TentaGel R RAM (Rapp Polymere, Tübingen, Germany), a low crosslinked polystyrene PEG copolymer resin by the solid-phase method of Merrifield with standard Fmoc chemistry, as described in detail in our recent study ([Batta et al., 2020]). After coupling the last arginine, one half of the penetratin was reacted with AFDye532 N-hydroxysuccinimide ester (molecular weight 723.77 g/mol, Fluoroprobes, Scottsdale, AZ, United States), while the other half with 5(6)-carboxynaphthofluorescein N-succinimidyl ester (molecular weight 573.51 g/mol, Darmstadt, Germany). Completion of the coupling was assessed by Kaiser test, which was followed by deprotection and release from the resin. After filtration and precipitation with cold diethyl ether, the crude products were purified by preparative reversed-phase HPLC (JASCO, Victoria, BC, Canada) on a C18 column and lyophilized. The purity of the products (>95%) was assessed by reversed-phase HPLC (JASCO) equipped with an analytical C18 column. […] These values well correlated with the predicted masses of the labeled peptides (2983.59 and 2833.33, respectively).
(§2) Total cellular penetratin uptake and endo-lysosomal escape was determined as described previously ([Batta et al., 2020]). Briefly, control THP-1 or JY cells and those treated with 50 μM ALA, GLA or SA for 48 h at 37°C were incubated in the continuous presence of 5 μM AFDye532-penetratin, 5 μM NF-penetratin and 0.25 μg/ml DAPI at 37°C in the thermostated sample holder of a FACS Aria III flow cytometer. The fluorescence intensity of DAPI was measured using an excitation at 405 nm and an emission filter 450/20 nm. AFDye532 and NF were excited at 488 and 561 nm, respectively, and their fluorescence was determined using emission filters 530/30 and 670/14 nm, respectively. Measurements started immediately after addition of DAPI and penetratin and continued for 20 min at 37°C. Experimental data were analyzed first in FCS Express. Time-correlated fluorescence intensity values of DAPI-negative living cells were exported after spectral compensation and the moving averages of samples were calculated with a window size of 10 s. […] During analysis, fluorescence intensity values were first normalized to the average intensity in the first time window, which was followed by calculation of the fluorescence ratio from the normalized values.

[2] = system: JY cells; assay: as above; type: cell-based, human; conditions: 37°C
Source text: as §1, §2

[3] = system: THP-1 cells; assay: Membrane dipole potential, di-8-ANEPPS excitation ratio, spectrofluorometry; type: cell-based, human; conditions: for Rexc, di-8-ANEPPS (excitation ratio 410-440 nm / 490-520 nm, positively correlates with DP): agent 20-200 μM, 10 min, 0.05% Pluronic F-127, measured at 37°C, mean of 5 experiments
Description: (§3) The human acute monocytic leukemia-derived cell line THP-1 and the human Epstein-Barr virus (EBV) transformed lymphoblastoid cell line JY were obtained from the American Type Culture Collection (Manassas, VA, United States) and cultivated according to their specifications. […] As controls, cells were treated with the corresponding amounts of native MβCD complexes not containing sterols. To study the effects of fatty acids, cells were incubated for 48 h in medium supplemented with saturated stearic acid (SA, Sigma Aldrich), ω-3 polyunsaturated α-linolenic acid (ALA, Sigma Aldrich) or ω-6 polyunsaturated γ-linolenic acid (GLA, Sigma Aldrich) at various concentrations ranging from 12.5 to 50 μM. […] After washing, cells were kept on ice and samples were subsequently warmed to 37°C right before measurements carried out with a Fluorolog-3 spectrofluorometer (Horiba Jobin Yvon, Edison, NJ, United States). During measurements, the cuvette holder was kept at 37°C using a circulating water bath. Excitation spectra were recorded between 380 and 550 nm with the detected emission wavelength set to 660 nm in order to minimize effects of possible changes in membrane fluidity ([Clarke and Kane, 1997]). The ratio of fluorescence intensities integrated between excitation wavelengths 410–440 nm and 490–520 nm was calculated for each sample, which positively correlates with the magnitude of DP ([Clarke and Kane, 1997]; [Kovacs et al., 2017]; [Batta et al., 2020]).

[4] = system: JY cells; assay: as above; type: cell-based, human; conditions: for Rexc, di-8-ANEPPS (excitation ratio 410-440 nm / 490-520 nm, positively correlates with DP): agent 20-200 μM, 10 min, 0.05% Pluronic F-127, measured at 37°C, mean of 5 experiments
Description: as §3

[5] = system: THP-1 cells; assay: Membrane hydration, PY3174 generalized polarization, confocal microscopy; type: cell-based, human; conditions: 200 μM sterol 1 h or 50 μM fatty acid 48 h, efficacy order 6KC > cholesterol ≥ 7DHC, all statistically significant
Description: (§4) For these measurements, cells were labeled with 10 μM PY3174 for 20 min at room temperature. […] During processing, segmentation of images into membrane and non-membrane pixels was carried out with the manually seeded watershed algorithm using a custom-written MATLAB program as described previously ([Kovacs et al., 2017]). The average value of general polarization correlating with the degree of membrane compactness ([[…] et al., 2013]) was calculated from the data of cell membrane pixels after background subtraction using […]

[6] = system: JY cells; assay: as above; type: cell-based, human; conditions: 200 μM sterol 1 h or 50 μM fatty acid 48 h, efficacy order 6KC > cholesterol ≥ 7DHC, effects of 7DHC and SA not statistically significant
Description: as §4

[7] = system: THP-1 cells; assay: Membrane fluidity, TMA-DPH fluorescence anisotropy; type: cell-based, human; conditions: 200 μM sterol 1 h or 50 μM fatty acid 48 h, 37°C, n = 6, vs control
Description: (§5) 4′-(trimethylammonio)-diphenylhexatriene (TMA-DPH) was purchased from Sigma-Aldrich, dissolved in tetrahydrofuran and used for determination of membrane fluidity as described previously ([Batta et al., 2018]). […] Fluorescence intensities were measured without washing using a Fluorolog-3 spectrofluorometer (Horiba Jobin Yvon, Edison, NJ, United States) with the temperature of the cuvette holder adjusted to 37°C by a circulating water bath. The fluorescence anisotropy (r) of TMA-DPH was determined in the L-format after excitation at 352 nm and measurement of fluorescence intensities at 430 nm according to the formula: […]

[8] = system: JY cells; assay: Membrane fluidity, TMA-DPH fluorescence anisotropy; type: cell-based, human; conditions: 200 μM sterol 1 h or 50 μM fatty acid 48 h, 37°C, n = 6, vs control
Description: as §5

[9] = system: THP-1 cells; assay: Membrane dipole potential, F66 emission ratio, flow cytometry; type: cell-based, human; conditions: n = 5; for Rem, F66 (emission ratio N*/T*, 470-490 nm / 564-606 nm, negatively correlates with DP): agent 20-200 μM, 10 min, 0.05% Pluronic F-127, at least 20,000 living cells per sample
Description: (§6) The human acute monocytic leukemia-derived cell line THP-1 and the human Epstein-Barr virus (EBV) transformed lymphoblastoid cell line JY were obtained from the American Type Culture Collection (Manassas, VA, United States) and cultivated according to their specifications. […] As controls, cells were treated with the corresponding amounts of native MβCD complexes not containing sterols. To study the effects of fatty acids, cells were incubated for 48 h in medium supplemented with saturated stearic acid (SA, Sigma Aldrich), ω-3 polyunsaturated α-linolenic acid (ALA, Sigma Aldrich) or ω-6 polyunsaturated γ-linolenic acid (GLA, Sigma Aldrich) at various concentrations ranging from 12.5 to 50 μM. […] After washing, the fluorescence intensities of cells were determined with a FACS Aria III flow cytometer (Becton Dickinson, Mountain View, CA, United States) at 37°C. […] Data analysis was carried out in FCS Express (De Novo Software, Los Angeles, CA, United States). The ratio of emitted intensities in the two wavelength ranges (N^∗/T^∗) was determined for each cell and the average value was calculated for each sample from the data of living cells gated on FSC-SSC dot plots. The value of N^∗/T^∗ ratio negatively correlates with the magnitude of DP ([Kovacs et al., 2017]).

[10] = system: JY cells; assay: as above; type: cell-based, human; conditions: n = 5; for Rem, F66 (emission ratio N*/T*, 470-490 nm / 564-606 nm, negatively correlates with DP): agent 20-200 μM, 10 min, 0.05% Pluronic F-127, at least 20,000 living cells per sample
Description: as §6

[11] = set-up: method as in Batta et al., 2020; conditions: lowering DP with the agent; ref Batta et al., 2020; cited from earlier work
Source text: One of the most widely studied cellular functions influenced by the magnitude of DP is the cellular binding and uptake of certain substances including drugs ([Asawakarn et al., 2001]), β-amyloid ([Hertel et al., 1997]) and other peptides ([Cladera and O’Shea, 1998]; [Zhan and Lazaridis, 2012]). […] Although cell-penetrating peptides are promising therapeutic tools for de ...

[12] = 5 μM AFDye532-penetratin + 5 μM NF-penetratin, flow cytometry, living cells
[13] = 5 μM AFDye532-penetratin + 5 μM NF-penetratin, continuous presence, flow cytometry, DAPI-negative living cells
[14] = 5 μM of each labeled penetratin, decline followed by a continuous gradual increase
[15] = sterol-MβCD complex, 60 min, room temperature, at the maximal applied concentration of 200 μM, n = 5, statistically significant
[16] = fatty acid 12.5-50 μM for 48 h, result at maximal 50 μM, n = 5
[17] = 50 μM fatty acid 48 h, then 50 or 200 μM cholesterol 1 h
[18] = 50 μM fatty acid 48 h, 5 μM AFDye532- and 5 μM NF-penetratin, compared at 900 s, n = 5

Row | Compound | Rexc, di-8-ANEPPS [3, 15] | Rexc, di-8-ANEPPS [4, 15] | PY3174 generalized polarization in the cell membrane (inversely correlates with membrane hydration) [5] | PY3174 generalized polarization in the cell membrane (inversely correlates with membrane hydration) [6] | TMA-DPH fluorescence anisotropy (inversely correlates with membrane fluidity) [7] | TMA-DPH fluorescence anisotropy (inversely correlates with membrane fluidity) [8] | Rexc, di-8-ANEPPS (excitation ratio 410-440 nm / 490-520 nm, positively correlates with DP) ([3]; room temperature) | Rexc, di-8-ANEPPS (excitation ratio 410-440 nm / 490-520 nm, positively correlates with DP) ([4]; room temperature) | Rem, F66 (emission ratio N*/T*, 470-490 nm / 564-606 nm, negatively correlates with DP) [9] | Rem, F66 (emission ratio N*/T*, 470-490 nm / 564-606 nm, negatively correlates with DP) [10] | also measured
1 | RQIKIWFQNRRMKWKK-amide [penetratin] | – | – | – | – | – | – | – | – | – | – | duration of fast increase of NF signal (endo-lysosomal escape of penetratin), followed by slower continuous rise [1, 12]: 180 to 240 s; time of saturation of AFDye532 signal (total cellular penetratin concentration) [1, 13]: 120 to 180 s; time course of ratio of NF and AFDye532 (fraction of penetratin in the cytosol) [1, 14]: initially declined; duration of fast increase of NF signal (endo-lysosomal escape of penetratin), followed by slower continuous rise [2, 12]: 180 to 240 s; time of saturation of AFDye532 signal (total cellular penetratin concentration) [2, 13]: 120 to 180 s; time course of ratio of NF and AFDye532 (fraction of penetratin in the cytosol) [2, 14]: initially declined
2 | CC(C)CCC[C@@H](C)[C@H]1CC[C@H]2C3=CC=C4C[C@@H](O)CC[C@]4(C)[C@H]3CC[C@]12C [7DHC, 7-dehydrocholesterol] | slightly raised | slightly raised | shifted toward the positive direction | shifted toward the positive direction | significantly elevated | significantly elevated | – | – | – | – | –
3 | CCCCCCCCCCCCCCCCCC(=O)O [SA, stearic acid] | – | – | increased the generalized polarization, albeit to a miniscule extent | increased the generalized polarization, albeit to a miniscule extent | did not reach statistical significance | did not reach statistical significance | – | – | – | – | Rexc, di-8-ANEPPS [3, 16]: slightly higher; Rexc, di-8-ANEPPS [4, 16]: slightly higher; effect of fatty acid pretreatment on cholesterol-induced DP elevation (Rem, F66) [9, 17]: a tendency to augment the cholesterol-induced DP changes; Rem, F66 ([9]; fatty acid 12.5-50 μM for 48 h): opposite changes were observed in response to SA or GLA with the former not reaching the level of significance; effect of fatty acid pretreatment on cholesterol-induced DP elevation (Rem, F66) [10, 17]: a tendency to augment the cholesterol-induced DP changes; ratio of NF and AFDye532 intensities (endo-lysosomal escape of penetratin) vs controls [1, 18]: no significant changes; ratio of NF and AFDye532 intensities (endo-lysosomal escape of penetratin) vs controls [2, 18]: no significant changes
4 | O=C(CCc1ccc(O)cc1)c1c(O)cc(O)cc1O [phloretin, 3-(4-hydroxyphenyl)-1-(2,4,6-trihydroxyphenyl) propan-1-one] | – | – | – | – | – | – | dose-dependently decreased | dose-dependently decreased | increased Rem, F66 values implying lower magnitudes of DP, this change did not reach the level of significance in one of the cell lines | increased Rem, F66 values implying lower magnitudes of DP, this change did not reach the level of significance in one of the cell lines | cellular uptake and endo-lysosomal escape of penetratin [11]: increased
5 | CC(C)CCC[C@@H](C)[C@H]1CC[C@H]2[C@@H]3CC=C4C[C@@H](O)CC[C@]4(C)[C@H]3CC[C@]12C [cholesterol] | moderately increased | moderately increased | shifted toward the positive direction | shifted toward the positive direction | significantly elevated | significantly elevated | – | – | – | – | –
6 | CC(C)CCC[C@@H](C)[C@H]1CC[C@H]2[C@@H]3CC(=O)[C@H]4C[C@@H](O)CC[C@]4(C)[C@H]3CC[C@]12C [6KC, 3β-hydroxy-5α-cholestan-6-one] | robustly elevated | robustly elevated | shifted toward the positive direction | shifted toward the positive direction | did not reach statistical significance | did not reach statistical significance | dose-dependently increased | dose-dependently increased | dose-dependent decreases | dose-dependent decreases | –

From PMC8074792, “An ω-3, but Not an ω-6 Polyunsaturated Fatty Acid Decreases Membrane Dipole Potential and Stimulates Endo-Lysosomal Escape of Penetratin” (Frontiers in Cell and Developmental Biology, 2021)
